Data from US20240383915A1, “OXAZEPINE COMPOUNDS AND USES THEREOF IN THE TREATMENT OF CANCER” (Genentech, Inc., priority 2021, published 2024).

Assays:
KRAS G12D = KRAS G12D (Homo sapiens (Human), UniProt P01116, G12D); test: KRas (G12D) GDP HTRF (BODIPY-GDP exchange TR-FRET); type: biochemical
Method: (§1) KRAS Biochemical Assay—BODIPY-GDP Exchange TR-FRET. Biochemical compound potencies were assessed by evaluating inhibition of SOS1-mediated nucleotide exchange in KRAS G12D. The SOS1-promoted exchange of fluorescently-labeled GDP (BODIPY-GDP) was monitored by time-resolved fluorescence resonance energy transfer (TR-FRET). Compounds solubilized in DMSO were dispensed as concentration series into 384-well white assay plates. A preformed complex of biotin-tagged recombinant human KRAS (1.5 nM mutant G12D or wild type) and 0.15 nM terbium-labeled streptavidin (CisBIO) prepared in 10 μL/well assay buffer (20 mM HEPES, pH 7.5, 50 mM NaCl, 10 mM MgCl2, 0.01% Tween-20 and 1 mM dithiothreitol) was added and allowed to incubate for 10-minutes. The reaction was initiated with the addition of 5 μL of 3 nM recombinant human SOS1 and 300 nM BODIPY-GDP in assay buffer. After a 60-minute incubation, the fluorescence was measured with excitation at 337 nm and emission at 490 and 520 nm. The TR-FRET ratio was determined as the fluorescence at 520 nm divided by the fluorescence at 490 nm multiplied by 10,000. […] The normalized TR-FRET results were plotted against compound concentration, and the data fit to a 4-parameter Hill equation to determine the IC50 values.

KRAS wild type = KRAS wild type (Homo sapiens (Human), UniProt P01116); test: KRas (wt) GDP HTRF (BODIPY-GDP exchange TR-FRET); type: biochemical
Method: as §1

[1] = target: Raf-RBD/KRAS G12D interaction (Homo sapiens (Human), UniProt P01116, G12D); test: KRAS G12D NanoBRET assay; type: cell-based; settings: HCT116
Method: KRAS G12D NanoBRET Assay. Cellular target engagement was assessed by monitoring inhibition of the Raf-RBD/KRAS G12D interaction in a NanoBRET™ assay (Promega). […] Cells were seeded into 384-well white tissue culture-treated assay plates in 40 μL culture medium (RPMI-1640 with 10% fetal bovine serum, 2 mM glutamine, […] puromycin, and 4 ng/mL blasticidin) with doxycycline to induce KRAS G12D-nanoluciferase expression over 20-24 h at 37° C., 5% CO2. The culture medium was then removed and replaced with assay medium (Opti-MEM® with 4% fetal bovine serum) and 0.1 μM HaloTag618 ligand. During the subsequent 4 h incubation at 37° C., 5% CO2, the HaloTag618 ligand binds to the Halotag-labeled KRAS G12D. Compounds solubilized in DMSO were then added as dilution series to the wells in a total volume of 160 nL (0.4% DMSO final), and the plates were incubated overnight at 37° C., 5% CO2. In the final step, 10 μL NanoGlo substrate in Opti-MEM was added to each well, and the emission read at 460 nm (luciferase signal) and 610 nm (NanoBRET signal) on an EnVision plate reader (PerkinElmer). The Raf-RBD/KRAS G12D interaction results in bioluminescence resonance energy transfer (BRET) from the product of the luciferase reaction in the vicinity of the Raf-RBD to the HaloTag ligand acceptor on the KRAS G12D and generates the NanoBRET signal. Binding of compounds to KRAS G12D and disruption of its interaction with Raf-RBD results in reduction of this signal. The luciferase signal and NanoBRET signal for compound wells were divided by the average corresponding signal for DMSO control wells. Then the NanoBRET ratio was calculated by dividing the control-adjusted NanoBRET signal by the similarly adjusted luciferase signal. […] The normalized NanoBRET ratio results were plotted against compound concentration, and the data fit to a 4-parameter Hill equation to determine the IC50 values.

[2] = system: KRAS G12D human pancreatic cell lines (AsPC-1 and SW1990); test: KRAS 3D-cell proliferation assay, CTG panel (G12D); type: cell-based; settings: 168 h, CellTiter-Glo 3D, 7 days
Method: (§2) KRAS 3D-Cell Proliferation Assays. Cellular potencies of compounds were assessed by evaluating inhibition of proliferation in 3D cultures of homozygous mutant KRAS G12D human pancreatic cell lines (AsPC-1 and SW1990) as compared to a KRAS wild type human lung adenocarcinoma cell line (PC-9). Cells were seeded into 384-well black round-bottom, ultra-low attachment assay plates in 50 μL cell growth medium (RPMI-1640 with 10% fetal bovine serum and 2 mM L-glutamine). After overnight incubation at 37° C. and 5% CO2, compounds solubilized in DMSO were added as dilution series to the wells in a total volume of 150 nL (0.3% DMSO final). The cells were incubated for 7 days at 37° C. and 5% CO2. Cell proliferation was quantitated by addition of 40 μL/well of CellTiter-Glo® 3D (Promega). This reagent in combination with mechanical disruption releases the cellular ATP to promote activity in a luciferase-based enzyme/substrate chemiluminescent detection system. After a 25-minute incubation under ambient conditions with shaking and an additional 10 minutes without shaking, the contents of the wells were mixed by pipetting up and down repeatedly to disrupt the spheroids, and then the plates were centrifuged to remove bubbles. The plates were incubated for another 15 minutes under ambient conditions, and the luminescence read on a plate reader (e.g. EnVision [PerkinElmer]). […] The normalized luminescence results were plotted against compound concentration, and the data fit to a 4-parameter Hill equation to determine the IC50 values.

[3] = system: KRAS wild type human lung adenocarcinoma cell line (PC-9); test: KRAS 3D-cell proliferation assay, CTG panel non G12D; type: cell-based; settings: 168 h, CellTiter-Glo 3D, 7 days
Method: as §2

KRas(G12V) = KRas(G12V) (Homo sapiens (Human), UniProt P01116, G12V); test: KRas(G12V) GDP HTRF (BODIPY-GDP exchange TR-FRET); type: biochemical
KRas = KRas (Homo sapiens (Human), UniProt P01116); test: KRas GDP HTRF (BODIPY-GDP exchange TR-FRET); type: biochemical
Method in brief: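 Inhibition of SOS1-mediated exchange of BODIPY-GDP on KRAS G12D, started with 3 nM recombinant human SOS1 and 300 nM BODIPY-GDP and read after 60 min. TR-FRET excitation 337 nm, ratio 520/490 nm ×10,000. IC50 from 4-parameter Hill fit of normalized data.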

SW480 cells = test: SW480 proliferation assay; type: cell-based; settings: Homo sapiens, SW480, SW480; read-out: SW480 Prolif IC50 (G12V)
PC-9 cells = test: PC9 proliferation assay; type: cell-based, human; settings: Homo sapiens, PC-9, PC9; read-out: PC9 Prolif IC50 (G12V)

Chain of KRAS wild type (P01116-2 other isoform, or with tags, fused parts or gaps): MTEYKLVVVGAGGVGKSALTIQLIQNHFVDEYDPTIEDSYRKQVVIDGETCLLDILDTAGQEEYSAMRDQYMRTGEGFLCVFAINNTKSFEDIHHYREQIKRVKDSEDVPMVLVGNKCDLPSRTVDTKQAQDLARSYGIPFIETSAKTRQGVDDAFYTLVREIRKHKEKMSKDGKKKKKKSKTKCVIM
Chain of KRas (P01116-2 other isoform, or with tags, fused parts or gaps): as above
Chain of KRas(G12V) (P01116-2 other isoform, or with tags, fused parts or gaps G12V): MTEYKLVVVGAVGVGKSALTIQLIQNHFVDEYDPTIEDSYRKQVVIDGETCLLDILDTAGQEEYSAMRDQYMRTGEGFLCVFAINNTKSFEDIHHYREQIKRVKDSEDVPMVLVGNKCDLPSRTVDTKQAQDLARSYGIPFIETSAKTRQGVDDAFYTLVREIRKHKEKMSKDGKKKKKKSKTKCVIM
Chain of KRAS G12D (P01116-2 other isoform, or with tags, fused parts or gaps G12D): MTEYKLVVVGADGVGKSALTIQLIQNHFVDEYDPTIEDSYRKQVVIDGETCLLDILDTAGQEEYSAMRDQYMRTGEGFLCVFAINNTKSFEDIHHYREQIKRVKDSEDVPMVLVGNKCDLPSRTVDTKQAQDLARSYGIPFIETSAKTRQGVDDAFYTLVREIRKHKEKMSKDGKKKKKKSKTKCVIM
Chain of Raf-RBD/KRAS G12D interaction (P01116-2 other isoform, or with tags, fused parts or gaps G12D): as above

IC50 (KRAS G12D)	IC50 (KRAS wild type)	IC50 [1]	IC50 [2]	IC50 [3]	IC50 (KRas(G12V))	IC50 (KRas)	IC50 (SW480 cells)	IC50 (PC-9 cells)	SMILES
1.55 nM	10.8 nM	2580 nM	1080 nM	2290 nM					C=C1CN2CCC[C@@]2(COc2nc3c4c(c(Cl)c(-c5nc(N)cc(C)c5C(F)(F)F)c(F)c4n2)OCCN3CCN(C)C)C1 (single isomer, unassigned) [Example 513]
817 nM	4120 nM	≥ 10000 nM							C=C1CN2CCC[C@@]2(COc2nc3c4c(c(Cl)c(-c5nc(N)cc(C)c5C(F)(F)F)c(F)c4n2)OCCN3CCN(C)C)C1 (single isomer, unassigned) [Example 514]
11.9 nM	88 nM	≥ 10000 nM		7700 nM					C=C1CN2CCC[C@@]2(COc2nc3c4c(c(F)c(-c5nc(N)cc(C)c5C(F)(F)F)c(F)c4n2)OCCN3CCN(C)C)C1 (single isomer, unassigned) [Example 523]
480 nM	2680 nM	≥ 10000 nM							C=C1CN2CCC[C@@]2(COc2nc3c4c(c(F)c(-c5nc(N)cc(C)c5C(F)(F)F)c(F)c4n2)OCCN3CCN(C)C)C1 (single isomer, unassigned) [Example 524]
13.6 nM	240 nM	≥ 10000 nM							Cc1cc(N)nc(-c2cc3nc(OCC45CCCN4CCC5)nc4c3c(c2Cl)OCCN4CCN(C)C)c1C(F)(F)F [Example 510]
174 nM	1110 nM								C=C1CN2CCC[C@@]2(COc2nc3c4c(c(Cl)c(-c5c(F)ccc6cnn(C)c56)cc4n2)OCCN3CCN(C)C)C1 [Example 512]
3.39 nM	20 nM								C=C1CN2CCC[C@@]2(COc2nc3c4c(c(Cl)c(-c5nc(N)cc(C)c5C(F)(F)F)c(F)c4n2)OCCN3C2CCNC2)C1 (stereo partly drawn) [Example 515]
29 nM	128 nM								C=C1CN2CCC[C@@]2(COc2nc3c4c(c(Cl)c(-c5nc(N)cc(C)c5C(F)(F)F)c(F)c4n2)OCCN3C2CCNC2)C1 (stereo partly drawn) [Example 518]

Further lines, the compound ahead of its results:

SMILES	IC50 (KRAS G12D)	IC50 (KRAS wild type)	IC50 [1]	IC50 [2]	IC50 [3]	IC50 (KRas(G12V))	IC50 (KRas)	IC50 (SW480 cells)	IC50 (PC-9 cells)
Cc1cc(N)nc(-c2cc3ncnc4c3c(c2Cl)OC[C@H](CC#N)N4C2CCNC2)c1C(F)(F)F (single isomer, unassigned) [Example 507]	276 nM	8650 nM	≥ 10000 nM						
Cc1cc(N)nc(-c2cc3ncnc4c3c(c2Cl)OC[C@H](CC#N)N4C2CCNC2)c1C(F)(F)F (single isomer, unassigned) [Example 508]	472 nM	8110 nM	≥ 10000 nM						
COCC12COC(COc3nc4c5c(c(Cl)c(-c6nc(N)cc(C)c6C(F)(F)F)c(F)c5n3)OCCN4[C@H](C)c3cccnc3N)(C1)C2 [Example 149, 6-((R)-4-((R)-1-(2-aminopyridin-3-yl)ethyl)-8-chloro-10-fluoro-2-((4-(methoxymethyl)-2-oxabicyclo[2.1.1]hexan-1-yl)methoxy)-5,6-dihydro-4H-[1,4]oxazepino[5,6,7-de]quinazolin-9-yl)-4-methyl-5-(trifluoromethyl)pyridin-2-amine]						0.21 nM	0.78 nM	74 nM	16000 nM
Cc1cc(N)nc(-c2c(Cl)c3c4c(nc(OCC56COC(CF)(C5)C6)nc4c2F)N([C@H](C)c2cccnc2N)CCO3)c1C(F)(F)F [Example 154, 6-((R)-4-((R)-1-(2-aminopyridin-3-yl)ethyl)-8-chloro-10-fluoro-2-((1-(fluoromethyl)-2-oxabicyclo[2.1.1]hexan-4-yl)methoxy)-5,6-dihydro-4H-[1,4]oxazepino[5,6,7-de]quinazolin-9-yl)-4-methyl-5-(trifluoromethyl)pyridin-2-amine]						0.48 nM	1.1 nM	91 nM	14000 nM
Cc1cc(N)nc(-c2c(Cl)c3c4c(nc(OCC56CCC(CC5)OC6)nc4c2F)N([C@H](C)c2cccnc2N)CCO3)c1C(F)(F)F [Example 157, 6-((R)-2-((2-oxabicyclo[2.2.2]octan-4-yl)methoxy)-4-((R)-1-(2-aminopyridin-3-yl)ethyl)-8-chloro-10-fluoro-5,6-dihydro-4H-[1,4]oxazepino[5,6,7-de]quinazolin-9-yl)-4-methyl-5-(trifluoromethyl)pyridin-2-amine]						0.81 nM	3.2 nM	400 nM	8200 nM
Cc1cc(N)nc(-c2cc3ncnc4c3c(c2Cl)OCCN4CCN(C)C)c1C(F)(F)F [Example 501, 6-(8-Chloro-4-(2-(dimethylamino)ethyl)-5,6-dihydro-4H-[1,4]oxazepino[5,6,7-de]quinazolin-9-yl)-4-methyl-5-(trifluoromethyl)pyridin-2-amine]	4160 nM	109000 nM	≥ 10000 nM						
CNCCN1CCOc2c(Cl)c(-c3nc(N)cc(C)c3C(F)(F)F)cc3ncnc1c23 [Example 503]	4620 nM	94300 nM	≥ 10000 nM						
Cc1cc(N)nc(-c2cc3ncnc4c3c(c2Cl)OCCN4C2CCNC2)c1C(F)(F)F (stereo not drawn) [Example 505]	1730 nM	66400 nM	≥ 10000 nM						
Cc1cc(N)nc(-c2cc3ncnc4c3c(c2Cl)OCCN4C2CCNC2)c1C(F)(F)F (stereo not drawn) [Example 506]	2400 nM	55000 nM	≥ 10000 nM						
Cc1cc(N)nc(-c2cc3nc(OC[C@@H]4C[C@@H](F)CN4C)nc4c3c(c2Cl)OCCN4CCN(C)C)c1C(F)(F)F [Example 509, 6-(8-Chloro-4-(2-(dimethylamino)ethyl)-2-(((2S,4R)-4-fluoro-1-methylpyrrolidin-2-yl)methoxy)-5,6-dihydro-4H-[1,4]oxazepino[5,6,7-de]quinazolin-9-yl)-4-methyl-5-(trifluoromethyl)pyridin-2-amine]	164 nM	1660 nM	9850 nM						
